From US20020049161A1, “Pharmaceutical combination preparations containing erythropoietin and iron preparations” (Roche Diagnostics GmbH, priority 1995, published 2002) come the findings set out here.

For one experiment, the system named is anemia patients. Nature of the experiment: Iron status and safety diagnostic parameters in anemia patients under rhEPO/iron therapy. It counts as in vivo, human. The method, then:
When conducting the combination therapy using the combination preparation of the invention to treat anemia, the weekly maximum dosage can be concluded in a quite simple fashion by determining the diagnostic parameters transferrin receptor (TfR), ferritin and the ratio of TfR to ferritin.
Advantageously, the TfR concentration is between 1500-2500 μg/l. The concentration ratio of TfR (in μg/l) to ferritin (in μg/l) is particularly in the range of 15-35, preferably at values above 20.
In order to safely exclude undesirable side effects, the acute phase parameter CRP (2-10 mg/l) [CRP=C-reactive protein) is measured. In addition, the liver parameter GPT (glutamate pyruvate transaminase) may be determined, which should be <50 U/l at 37° C. (<30 U/l at 25° C.). Furthermore, the hematological control parameters such as hematocrit (fraction of red blood cells in total volume) or the increase in hypochromic erythrocytes may optionally be utilized, wherein the reticulocytes may increase to a value of up to 15/1000-30/1000. The typical hemoglobin concentration is about 12-18 g/dl.
The determination of the iron status is effected by analyzing samples of body fluids (blood, serum, urine, etc.) from the patients in question. For the determination of the iron status, particularly the concentrations of iron, transferrin, ferritin, transferrin receptor, the transferrin saturation, and the transferrin/ferritin saturation are determined. With hemodialysis patients, the iron, transferrin, ferritin and transferrin saturation parameters are preferably determined according to per se common analytical methods. In particular, the determination of the transferrin/ferritin saturation value is relevant. In the case of anemia patients whose anemia has not been caused by hemodialysis, the ferritin concentration and the concentration of transferrin receptor are determined above all. In particular, the determination of the ratio of transferrin receptor to ferritin (transferrin receptor/ferritin saturation value) is relevant.
In addition, the serum ferritin level is determined. Ferritin is an iron-storing glycoprotein of which tissue-typical isoferritins are existing and which can be determined in the serum by immunological means, e.g., by a radioimmunoassay (RIA) or by turbidimetric methods as well. The ferritin value is a measure for iron storage in the tissue. In most of the laboratories, the normal range is between 30 and 300 ng/ml, and the geometrical mean value is 88 in males and 49 in females. The serum ferritin values are in close relationship to the total iron reserve of the body. Therefore, decreased serum ferritin levels are found only in case of iron deficiency. Increased levels are found in case of iron overloading. Likewise, increased serum ferritin levels are found in case of liver lesions or in association with some types of neoplasia, where ferritins may be bound to acute phase proteins. Similarly, the serum transferrin receptor may be determined using an enzyme-enhanced immune absorption test (enzyme-linked immunosorbent assay=ELISA), wherein a monoclonal antibody against the soluble receptor is used. The reference range is between 0.5-3 mg/l. The level is increased in case of slight deficiency in the iron depots. The concentrations of specific erythrocyte ferritins may be determined in order to characterize the iron depots, particularly if the serum ferritin cannot be utilized in case of tissue lesions or due to acute phase reactions.

For a further experiment, the system named is hemodialysis patients. The experiment is described as follows: Iron status and safety diagnostic parameters in hemodialysis patients under rhEPO/iron therapy. Format: in vivo, human. The method, then:
When conducting the combination therapy using the combination preparation according to the invention, the maximum weekly dosage can be concluded in a quite simple fashion by determining the diagnostic parameters for the iron status, particularly the iron, transferrin, transferrin saturation and ferritin parameters.
Preferably, the ferritin concentration is at least 125 μg/l, particularly at least 150 μg/l, and up to 270 μg/l at maximum, especially up to 250 μg/l at maximum. Advantageously, the iron concentration is between 10-20 μmol/l (corresponding to about 56-112 μg/dl) and the transferrin concentration between […] (corresponding to about 240-480 mg/dl) The transferrin saturation is defined as the ratio of serum/plasma iron concentration to serum/plasma transferrin concentration (multiplied by a correction factor of 1.41). It is a non-dimensional figure not depending on the patient's hydration condition. The transferrin saturation is calculated according to the formula: […]
In order to safely exclude undesirable side effects, the acute phase parameter CRP (5 mg/l±100%) [CRP=C reactive protein) is measured, with CRP currently being regarded as the best protein marker of inflammatory reactions. In addition, the liver parameters GPT (glutamate pyruvate transaminase), GOT (glutamate oxalic acetate transaminase) and γ-GT (γ-glutamyltransferase) may be determined, which should fall within the following ranges: (determination at 37° C.): GPT: <50 U/l; GOT: <50 U/l; γ-GT: <40 U/l, with the GPT parameter currently ranking first in liver diagnostics.
The determination of the iron status is effected by analyzing samples of body fluids (blood, serum, urine, etc.) from the patients in question. For the determination of the iron status, particularly the concentrations of iron, transferrin, ferritin, transferrin receptor, the transferrin saturation, and the transferrin/ferritin saturation are determined. With hemodialysis patients, the iron, transferrin, ferritin and transferrin saturation parameters are preferably determined according to per se common analytical methods. […]

The mark [1] stands for this setting: Patient E (anemia), 5,000 U rhEPO three times a week over 3 weeks.
Where [2] appears, read: Patient F (anemia), iron infusions omitted, within 3 weeks.
[3] abbreviates: Patient B (hemodialysis), 5,000 U rhEPO three times a week over 3 weeks.

In the case of “recombinant human erythropoietin [rhEPO]”, in the experiment on anemia patients (setting [1]), the “ferritin value decreased to” value is under 500 µg/L, the “transferrin receptor value increased to” value is recorded as “above 1500 μg/l” and the “transferrin saturation decreased to” value is under 25%. In the experiment with anemia patients (setting [2]), the “ferritin values lowered to” value is under 500 µg/L and the “transferrin receptor values increased to” value is “above 1500 μg/l”. For the same substance, in the experiment on hemodialysis patients (setting [3]), the “ferritin value decreased to” value was under 500 µg/L and the “transferrin saturation decreased to” value is reported as under 25%. In the experiment with hemodialysis patients (Patient C (hemodialysis), iron infusions omitted, within 3 weeks), the “ferritin values lowered to” value was found to be 500 µg/L.
